Measured values: paper PMC6095626, “Screening of the Pathogen Box for inhibitors with dual efficacy against Giardia lamblia and Cryptosporidium parvum” (PLoS Neglected Tropical Diseases, 2018)
Where two headings read alike, the source gives them in different places.

Experiments:
[1] = system: G. lamblia trophozoites (luciferase expressing, WBC6); test: microbe, parasite or virus in culture; assay type: cell-based, Giardia lamblia; conditions: for EC50: read-out: G. lamblia EC50
Method in brief: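 Luciferase-expressing WBC6 trophozoites plated at 250,000 cells/mL, compounds added 1:1, incubated anaerobically (GasPak bags) at 37 °C for 24 h; viability read by bioluminescence, with duplicate plates counted on a MOXI Z cell counter. Metronidazole control serially diluted 1:2 from 40 μM.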

HCT-8 host cells = test: Toxicity to HCT-8 host cells seen in the C. parvum assay; assay type: cell-based; conditions: no reliable C. parvum EC50 could be determined
Method: Growth inhibition and EC50 determination assays were performed using UGA1 Nluc expressing C. parvum strain in HCT-8 cells (ATCC^©, Manassas, VA) as previously described. HCT-8 cells were inoculated onto 96-well plates and allowed to grow for 48 hours to 90–100% confluence and then treated with single concentration (10 μM) or serially diluted compounds prior to oocyst infection. C. parvum oocysts were incubated for 10 minutes in 10% bleach at room temperature and then washed with DPBS. One thousand oocysts per well were applied to the 96 well plates with RPMI-1640 medium supplemented with 10% horse serum and 1% penicillin/streptomycin at the same time as compound addition and incubated for 48 hours. The cell monolayers were lysed for 1 hour before adding Nano-Glo® luciferase reagent (Promega, Madison, WI), and measuring relative luminescence units (RLU) in an EnVision Plate Reader (Perkin Elmer, Waltham, MA). Several parameters, including reproducibility and reliability, were previously evaluated to optimize this assay for low and high-throughput (HTP) screening of small molecule compounds against C. parvum. EC50 values were calculated using Prism 7 software (GraphPad Software, San Diego, CA).

HepG2 cells [2] = conditions: ref Pathogen_Box_Activity_Biological_Data_ Structure & Smiles (https://www.pathogenbox.org/about-pathogen-box/composition); read-out: HepG2 CC50 (literature values); cited from earlier work
HepG2 cells [3] = test: Cytotoxicity against HepG2 cells, AlamarBlue viability assay, 48 hours; assay type: cell-based, human; conditions: read-out: HepG2 CC50 (this study)
Text: Mammalian cell cytotoxicity assay data performed on HepG2 (human hepatocellular carcinoma) cells and described as CC20 or CC50 values are provided in supporting documentation that accompanied the Pathogen Box for approximately three quarters of the 400 compounds. However, no details of the assay conditions or parameters were provided. In this study, selected compounds were further tested for cytotoxicity against HepG2 cells as previously described. Briefly, cells were exposed to two-fold serial dilutions of compounds for 48 hours and cytotoxicity was assessed using the AlamarBlue® viability assay (Thermo Fisher Scientific, Waltham, MA). Each dilution was assayed in quadruplicate and concentrations causing 50% growth inhibition (CC50) were calculated by non-linear regression using GraphPad Prism 7 software (GraphPad Software, San Diego, CA).

[4] = system: C. parvum (UGA1 Nluc expressing strain in HCT-8 cells); test: microbe, parasite or virus in culture; assay type: cell-based, Cryptosporidium parvum; conditions: initial Pathogen Box screen, single concentration 10 µM, inhibition compared to DMSO wells
Method in brief: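 HCT-8 monolayers grown 48 h to 90–100% confluence, treated with compound at 10 μM or serial dilutions, then infected with bleach-treated UGA1 Nluc C. parvum oocysts.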

G. lamblia = conditions: read-out: G. lamblia EC50 (literature), cited from earlier work
G. lamblia trophozoites = test: G. lamblia growth inhibition counted with MOXI Z Mini Automated Cell Counter; assay type: cell-based; conditions: Giardia duodenalis, 24 h, read-out: G. lamblia EC50 by MOXI coulter counter
Method: Preliminary effective concentration that causes 50% growth inhibition (EC50) assays were performed on the luciferase expressing and wild-type (control) G. lamblia cells to establish a correlation between manually counted cells and the bioluminescent signal read out. Trophozoites were harvested by chilling cultures on ice for 30 minutes and plated by adding 150 μL per well at a concentration of 250,000 cells/mL. Metronidazole (Sigma, St. Louis, MO) was used as a control and was serially diluted 1:2 from 40 μM to 0.04 μM and 150 μL was added to the 150 μL of the G. lamblia trophozoites. Plates were covered in plastic low-evaporation lids, sealed in individual anaerobic BD GasPak Bio-Bags (Becton Dickinson, San Jose, CA) and incubated at 37 °C for 24 hours. Plates were then iced for 30 minutes and 250 μL of resuspended cells were transferred to a solid white 96-well plate and 50 μL of 10 mg/mL D-luciferin was added to a final reaction concentration of 1.67 mg/mL. Plates were incubated on a plate shaker at 37 °C for 30 minutes and read on an EnVision Plate Reader. A duplicate plate was concurrently set up and assayed using a MOXI Z Mini Automated Cell Counter Kit (Orflo, Ketchum, ID). Results obtained from the bioluminescence assay and the MOXI counter data were compared to evaluate their correlation to each another. […]

Row | SMILES | Giardia (16 uM) Mean % inhibition ([1]; initial Pathogen Box screen, single concentration 16 µM, inhibition compared to DMSO wells) [%] | EC50 ([1]; luciferase expressing G. lamblia trophozoites, 24 hours, D-luciferin bioluminescence read-out) [nM] | Toxicity to HCT-8 host cells in the C. parvum assay (HCT-8 host cells) | CC50 (HepG2 cells [2]) [nM] | CC50 (HepG2 cells [3]) [nM] | Crypto (10 uM) Mean % inhibition [4] [%] | EC50 (G. lamblia) [nM] | EC50 (G. lamblia; reference strain WB (48h)) [nM] | EC50 ([1]; Giardia duodenalis, 24 h) [nM] | EC50 (G. lamblia trophozoites) [nM]
1 | O=C(Nc1ccc(C(F)(F)F)c(C(F)(F)F)c1)c1cc(Cl)ccc1O [MMV687807] | 97 | 510 ± 60 | too toxic to the HCT-8 host cells | 700 | < 5000 | 90 | – | – | – | –
2 | Cc1ncc([N+](=O)[O-])n1CCO [metronidazole, Metronidazole] | – | – | – | – | – | – | ~5000 | 8650 | 2240 | 1060
